Values after ≈ are worked out from the molar mass of the structure shown. Like-named read-outs stand apart in the source and are kept apart here.
What was measured:
[1] = tested on: MRSA-2 (methicillin-resistant Staphylococcus aureus clinical isolate); assay: MIC assay (broth microdilution, CLSI); assay type: cell-based; conditions: Staphylococcus aureus, MRSA, read-out: MIC, MRSA-2
[2] = tested on: Staphylococcus epidermidis (ATCC 12228); assay: MIC assay (broth microdilution, CLSI); assay type: cell-based; conditions: Staphylococcus epidermidis, ATCC12228
[3] = tested on: Staphylococcus epidermidis (ATCC 35984), MRSE; assay: MIC assay (broth microdilution, CLSI); assay type: cell-based; conditions: Staphylococcus epidermidis
[4] = tested on: Enterococcus faecium (ATCC 700221), VRE; assay: MIC assay (broth microdilution, CLSI); assay type: cell-based
in vitro = assay type: cell-based; conditions: human
Experimental: (§1) The cytotoxicities of select compounds of the invention against HeLa cells were determined. HeLa cytotoxicity was assessed using the LDH release assay described by CYTOTOX96 (Promega G1780). HeLa cells were grown in Dulbecco's Modified Eagle Medium (DMEM; Gibco) supplemented with 10% Fetal Bovine Serum (FBS) at 37° C. with 5% CO2. […] Triton X-100 (at 2% v/v) was used as the positive control for maximum lactate dehydrogenate (LDH) activity in this assay (e.g., complete cell death), while “medium only” lanes served as negative control lanes (e.g., no cell death). DMSO was used as the vehicle control. […] Finally, Stop Solution (50 μL) was added to the incubating plates, and the absorbance was measured at 490 nm.
(§2) HeLa cytotoxicity was assessed using the LDH release assay described by CYTOTOX96 (Promega G1780). HeLa cells were grown in Dulbecco's Modified Eagle Medium (DMEM; Gibco) supplemented with 10% Fetal Bovine Serum (FBS) at 37° C. with 5% CO2. […] Triton X-100 (at 2% v/v) was used as the positive control for maximum lactate dehydrogenate (LDH) activity in this assay (e.g., complete cell death), while “medium only” lanes served as negative control lanes (e.g., no cell death). DMSO was used as our vehicle control. […] Finally, Stop Solution (50 μL) was added to the incubating plates and the absorbance was measured at 490 nm. Results are from three independent experiments (FIG. 19)

HeLa cells = assay: in vitro; assay type: cell-based; conditions: human, 24 h
Experimental: as §1, §2

human red blood cells = assay: Hemolysis assay with red blood cells; conditions: human, 1 h, 200 μM, pH 7.2
Experimental: The hemolysis activities of select compounds of the invention were determined. […] The washing was repeated three times with the buffer. In 96-well plate, test compounds were added to the buffer from DMSO stocks. […] The plate was then incubated for 1 hour at 37° C. After incubation, the plate was centrifuged for 5 minutes at 3,500 rpm. Then 80 μL of the supernatant was transferred to another 96-well plate, and the optical density (OD) was read at 405 nm. DMSO served as the negative control (0% hemolysis), while Triton X served as the positive control (100% hemolysis). The percent of hemolysis was calculated as (OD405 of the compound−OD405 of DMSO)/(OD405 of Triton X−OD405 of the buffer).
The washing was repeated three times with the buffer. In 96-well plate, test compounds were added to the buffer from DMSO stocks. […] The plate was then incubated for 1 hour at 37° C. After incubation, the plate was centrifuged for 5 minutes at 3,500 rpm. Then 80 μL of the supernatant was transferred to another 96-well plate and the optical density (OD) was read at 405 nm. DMSO served as our negative control (0% hemolysis) while Triton X served as our positive control (100% hemolysis). The percent of hemolysis was calculated as (OD405 of the test compound−OD405 DMSO)/(OD405 Triton X−OD405 buffer) from three independent experiments.

[5] = tested on: MRSA-2 planktonic cells and biofilms; assay: Calgary Biofilm Device (CBD) assay, MBC/MBEC; assay type: cell-based, Staphylococcus aureus; conditions: Staphylococcus aureus, MRSA
[6] = tested on: MRSE (S. epidermidis ATCC 35984) planktonic cells and biofilms; assay: Calgary Biofilm Device (CBD) assay, MBC/MBEC; assay type: cell-based, Staphylococcus epidermidis; conditions: Staphylococcus epidermidis; Table 8; read-out: MRSE 35984 MBC
[7] = tested on: VRE (E. faecium ATCC 700221) planktonic cells and biofilms; assay: Calgary Biofilm Device (CBD) assay, MBC/MBEC; assay type: cell-based, Enterococcus faecium; conditions: Enterococcus; Table 8; c lowest concentration tested; read-out: VRE 700221 MBC
[8] = tested on: methicillin-resistant S. aureus (MRSA) strains; assay: MIC assay, values summarised over MRSA strains; assay type: cell-based, Staphylococcus aureus
MRSA BAA-44 = assay: MIC assay (broth microdilution, CLSI); conditions: Staphylococcus aureus, read-out: MIC, MRSA BAA-44
A. baumannii 19606 = assay: MIC assay (broth microdilution, CLSI); assay type: cell-based, Acinetobacter baumannii; conditions: Acinetobacter baumannii, 19606; read-out: A. baumannii 19606 MIC
P. aeruginosa (PAO1) = assay: MIC assay (broth microdilution, CLSI); assay type: cell-based; conditions: Pseudomonas aeruginosa, PAO1; read-out: PAO1 MIC
K. pneumoniae 13883 = assay: MIC assay (broth microdilution, CLSI); assay type: cell-based, Klebsiella pneumoniae; conditions: Klebsiella pneumoniae, 13883; read-out: K. pneumoniae 13883 MIC
E. coli UAEC-1 = assay: MIC assay (broth microdilution, CLSI); assay type: cell-based; conditions: Escherichia coli, UAEC1; read-out: E. coli UAEC-1 MIC
MRSA-2 = assay: MIC assay with Tiron or metal(II) cation co-treatment; assay type: cell-based, Staphylococcus aureus; conditions: for MIC: Staphylococcus aureus
S. epidermidis 12228 = assay: as above; assay type: cell-based, Staphylococcus epidermidis; conditions: for MIC: Staphylococcus epidermidis
E. faecium 700221 (VRE) = assay: as above; assay type: cell-based, Enterococcus faecium; conditions: for MIC: Enterococcus faecium, VRE
MRSA BAA-1707 = assay: MIC assay (broth microdilution, CLSI); conditions: Staphylococcus aureus, read-out: MIC, MRSA BAA-1707
[9] = Table 7, a midpoint of 2-fold range, b lowest concentration tested
[10] = Table 7, b lowest concentration tested, read-out: MIC, S. epidermidis 12228
[11] = Table 7, read-out: MIC, MRSE 35984
[12] = Table 7, b lowest concentration tested, read-out: MIC, VRE 700221
[13] = Table 8, a/b 2-/4-fold range in independent experiments, read-out: MRSA-2 MBC
[14] = MRSA-2, + loss, − increase of activity
[15] = S. epidermidis 12228, + loss, − increase of activity
[16] = E. faecium 700221, + loss, − increase of activity

Oc1c(Br)cc(Cl)c2nc3ccccc3nc12 [Compound 7, 2-Bromo-4-chloro-1-hydroxyphenazine]
MIC ([1]; Table 2A): 1.56 µM (≈ 0.483 µg/mL) | MIC [1, 9]: 1.56 µM (≈ 0.483 µg/mL) | MIC ([2]; Table 2A, read-out: MIC, Staphylococcus epidermidis (ATCC 12228)): 1.56 to 3.13 µM (≈ 0.483 to 0.969 µg/mL) | MIC [2, 10]: 2.35 µM (≈ 0.727 µg/mL) | MIC ([3]; Table 2A, read-out: MIC, Staphylococcus epidermidis (ATCC 35984)): 1.56 µM (≈ 0.483 µg/mL) | MIC [3, 11]: 1.56 µM (≈ 0.483 µg/mL) | MIC ([4]; Enterococcus faecium, Table 2A, read-out: MIC, Enterococcus faecium (ATCC 700221)): 6.25 µM (≈ 1.93 µg/mL) | MIC [4, 12]: 6.25 µM (≈ 1.93 µg/mL) | IC50 at 24 h (in vitro): > 100 µM | IC50 (HeLa cells): > 100 µM | % Hemolysis (200 μM) (human red blood cells): ≤1% | % Hemolysis at 200 μM (human red blood cells): ≤1% | MBC ([5]; Table 4, read-out: MBC, MRSA-2): 46.9 µM (≈ 14.5 µg/mL) | MBC [5, 13]: 46.9 µM (≈ 14.5 µg/mL) | MBC [6]: 11.7 µM (≈ 3.62 µg/mL) | MBC [7]: 7.8 µM (≈ 2.41 µg/mL) | growth inhibition activity against at least one MRSA strain [8]: sub-micromolar | melting point: 212 to 214 °C | MIC (MRSA BAA-44): 1.56 µM (≈ 0.483 µg/mL)

Oc1ccc(Br)c2nc3cc(Br)c(Br)cc3nc12 [Compound 13]
MIC [1, 9]: 1.56 µM (≈ 0.675 µg/mL) | MIC [2, 10]: 2.35 µM (≈ 1.02 µg/mL) | MIC [3, 11]: 3.13 µM (≈ 1.35 µg/mL) | MIC [4, 12]: 6.25 µM (≈ 2.71 µg/mL) | % Hemolysis at 200 μM (human red blood cells): ≤1% | MBC [5, 13]: > 200 µM | MBC [6]: > 200 µM | MBC [7]: > 200 µM | MIC (A. baumannii 19606): > 100 µM | MIC (P. aeruginosa (PAO1)): > 100 µM | MIC (K. pneumoniae 13883): > 100 µM | MIC (E. coli UAEC-1): > 100 µM | Fold Δ (Cu^2+) (MRSA-2; [14]): +8 | Fold Δ (Fe^2+) (MRSA-2; [14]): +2 | Fold Δ (Tiron) (MRSA-2; [14]): −125 | MIC (MRSA-2; MRSA-2, 200 μM copper(II), read-out: MIC with Cu^2+): > 100 µM | MIC (MRSA-2; MRSA-2, 200 μM iron(II), read-out: MIC with Fe^2+): 25 µM | MIC (MRSA-2; MRSA-2, 1 mM Tiron, read-out: MIC with Tiron): 0.1 µM | MIC (MRSA-2; MRSA-2, no additive (Table 9), read-out: MIC): 12.5 µM | Fold Δ (Cu^2+) (S. epidermidis 12228; [15]): +500 | Fold Δ (Tiron) (S. epidermidis 12228; [15]): n.a. (insignificant changes in MIC values (≤2-fold changes)) | MIC (S. epidermidis 12228; S. epidermidis 12228, 200 μM CuSO4, read-out: MIC with Cu^2+): 50 µM | MIC (S. epidermidis 12228; S. epidermidis 12228, 1 mM Tiron, read-out: MIC with Tiron): 0.1 µM | MIC (S. epidermidis 12228; S. epidermidis 12228, no additive, read-out: MIC): 0.1 µM | Fold Δ (Cu^2+) (E. faecium 700221 (VRE); [16]): +64 | Fold Δ (Tiron) (E. faecium 700221 (VRE); [16]): n.a. (insignificant changes in MIC values (≤2-fold changes)) | MIC (E. faecium 700221 (VRE); E. faecium 700221, 200 μM CuSO4, read-out: MIC with Cu^2+): 25 µM | MIC (E. faecium 700221 (VRE); E. faecium 700221, 1 mM Tiron, read-out: MIC with Tiron): 0.39 µM | MIC (E. faecium 700221 (VRE); E. faecium 700221, no additive, read-out: MIC): 0.39 µM | MIC (MRSA BAA-1707): 0.56 µM (≈ 0.242 µg/mL) | MIC (MRSA BAA-44): 1.56 µM (≈ 0.675 µg/mL)

Source: patent US20180312473A1, “PHENAZINE DERIVATIVES AS ANTIMICROBIAL AGENTS” (priority 2015, published 2018)
